Test results from publication PMC7969873 (Cell Reports, 2021).
Like-named read-outs stand apart in the source and are kept apart here.

How the values were obtained:
SARS-CoV-2 [1] = assay type: cell-based; conditions: 250 nM, Vero E6 cells, 48 h
SARS-CoV-2 [2] = experiment: microbe, parasite or virus in culture; assay type: cell-based; conditions: for IC50: IFA, read-out: IC50, inhibition of SARS-CoV-2 infectivity
[3] = HeLa-ACE2 uninfected host cell cytotoxicity counter screen; assay type: cell-based; conditions: human, uninfected HeLa-ACE2 cells; read-out: median cytotoxic concentration (CC50)
Procedure: Compounds were acoustically transferred into 1,536-well μclear plates (Greiner Part. No. 789091). HeLa-ACE2 cells were maintained as described for the infection assay and seeded in the assay-ready plates at 400 cells/well in DMEM with 2% FBS and plates were incubated for 24 hours at 37°C 5% CO2. To assess cell viability, the Image-iT DEAD green reagent (Thermo Fisher) was used according to manufacturer instructions. Cells were fixed with 4% paraformaldehyde, and counterstained with DAPI.

SARS-CoV-2 [4] = experiment: microbe, parasite or virus in culture; assay type: cell-based; conditions: Severe acute respiratory syndrome coronavirus 2, Calu-3 cells, read-out: IC50, SARS-CoV-2 viral titer
SARS-CoV-2 [5] = experiment: microbe, parasite or virus in culture; assay type: cell-based; conditions: Severe acute respiratory syndrome coronavirus 2, A549-ACE2, 24 h, 24 h, read-out: IC50, SARS-CoV-2 immunostaining signal
SARS-CoV-2 [6] = conditions: HeLa-ACE2 cells
SARS-CoV-2 [7] = assay type: cell-based; conditions: hiPSC-CMs; 250 nM
hiPSC-CMs = experiment: Cardiomyocyte beating / in vitro cardiotoxicity in hiPSC-CMs; assay type: cell-based, human; conditions: 250 nM
Procedure: Thus, we used the human-induced pluripotent stem-cell-derived cardiomyocyte (hiPSC-CM) system for antiviral drug testing against SARS-CoV-2. […] Thus, this cardiomyocyte system is useful for antiviral drug testing against SARS-CoV-2. […] The inhibition of virus production by berzosertib was evaluated by quantifying the infectious virus (TCID50) in the supernatant at various time points (Figure 2B). […] Infection of cardiomyocytes with SARS-CoV-2 was confirmed by specific staining of cardiac troponin T (cTnT) and viral spike proteins (Figure 2E). Untreated SARS-CoV-2-infected cells had infection-mediated cell injury with disrupted troponin T fibers.

SARS-CoV-2 [8] = experiment: SARS-CoV-2 infection of HEK293-ACE2 cells (IFA); assay type: cell-based; conditions: 250 nM, pre-treated 24 hours, one day post-infection
[9] = Severe acute respiratory syndrome coronavirus 2, Vero C1008, Vero E6 cells

Compound: CO[C@H]1CC[C@H](N2C(=O)CNc3ncc(-c4ccc(C(C)(C)O)nc4)nc32)CC1 [CC-223, Onatasertib]
- antiviral activity (prevention of viral CPE) in primary screen (SARS-CoV-2 [1]): antiviral activity

Compound: O=C1NC(=O)/C(=C/c2ccc3c(c2)OC(F)(F)O3)S1 [AS-604850]
- antiviral activity (prevention of viral CPE) in primary screen (SARS-CoV-2 [1]): antiviral activity

Compound: CCCCCCCCCCCCCCCCCCOP(=O)([O-])OC1CC[N+](C)(C)CC1 [Perifosine]
- antiviral activity (prevention of viral CPE) in primary screen (SARS-CoV-2 [1]): antiviral activity

Compound: Cc1ccc(C(=O)Nc2cccc(C(F)(F)F)c2)cc1Nc1nc(-c2cccnc2)nc2c1cnn2C [NVP-BHG712]
- antiviral activity (prevention of viral CPE) in primary screen (SARS-CoV-2 [1]): antiviral activity

Compound: IFN-α
- blocking of SARS-CoV-2 infection (IFA) (SARS-CoV-2 [2]; Vero E6 cells, 48 hpi, hydroxychloroquine and EIDD-2801 10 μM): effectively blocked

Compound: CCC(CC)COC(=O)[C@H](C)N[P@](=O)(OC[C@H]1O[C@@](C#N)(c2ccc3c(N)ncnn23)[C@H](O)[C@@H]1O)Oc1ccccc1 [Remdesivir]
- CC50 at 24 h [3]: > 10000 nM
- IC50 (SARS-CoV-2 [4]): 150 nM
- IC50 (SARS-CoV-2 [5]): 160 nM
- IC50 (SARS-CoV-2 [5]; A549-ACE2 cells, […]): 200 nM
- median effective dose (ED50), percentage of infected cells (SARS-CoV-2 [6]): 124 nM

Compound: Cn1c(=O)n(-c2ccc(C(C)(C)C#N)cc2)c2c3cc(-c4cnc5ccccc5c4)ccc3ncc21 [Dactolisib]
- IC50 (SARS-CoV-2 [2]; [9]): 111 nM
- virus production (infectious virus, TCID50, in supernatant) (SARS-CoV-2 [7]): inhibited viral production
- cardiomyocyte beating (beats per minute) (hiPSC-CMs; SARS-CoV-2-infected hiPSC-CMs): affected the cardiomyocyte functional beating
- in vitro cardiotoxicity (hiPSC-CMs; hiPSC-CMs): had cardiotoxicity

Compound: CC(=O)Nc1nc(C)c(-c2ccc(Cl)c(S(=O)(=O)NCCO)c2)s1 [PIK-93]
- antiviral activity (prevention of viral CPE) in primary screen (SARS-CoV-2 [1]): antiviral activity

Compound: Cc1c(CN2CCN(C(=O)[C@H](C)O)CC2)sc2c(N3CCOCC3)nc(-c3cnc(N)nc3)nc12 [GDC-0980]
- antiviral activity (prevention of viral CPE) in primary screen (SARS-CoV-2 [1]): antiviral activity

Compound: CS(=O)(=O)N1CCc2c(-c3cnc(N)nc3)nc(N3CCOCC3)nc21 [CH5132799]
- antiviral activity (prevention of viral CPE) in primary screen (SARS-CoV-2 [1]): antiviral activity

Compound: Nc1ncnc2c1c(-c1cnc3[nH]ccc3c1)nn2C1CCCC1 [PP121]
- antiviral activity (prevention of viral CPE) in primary screen (SARS-CoV-2 [1]): antiviral activity

Compound: N#C/C(=C/c1ccc(O)c(O)c1)C(=O)NCc1ccccc1 [AG-490]
- antiviral activity (prevention of viral CPE) in primary screen (SARS-CoV-2 [1]): antiviral activity

Compound: COc1cc2ncnc(Oc3cccc(NC(=O)Nc4cc(C(C)(C)C(F)(F)F)on4)c3)c2cc1OC [CEP-32496]
- antiviral activity (prevention of viral CPE) in primary screen (SARS-CoV-2 [1]): antiviral activity

Compound: C[C@H](Nc1ncnc2nc[nH]c12)c1cc2cccc(Cl)c2c(=O)n1-c1ccccc1 [IPI-145]
- antiviral activity (prevention of viral CPE) in primary screen (SARS-CoV-2 [1]): antiviral activity

Compound: Nc1ccc(-c2ccc3ncc4ccc(=O)n(-c5cccc(C(F)(F)F)c5)c4c3c2)cn1 [Torin 2]
- antiviral activity (prevention of viral CPE) in primary screen (SARS-CoV-2 [1]): antiviral activity
- IC50 (SARS-CoV-2 [2]; Vero E6 cells): < 25 nM

Compound: COc1cc2nccc(Oc3ccc(NC(=O)Nc4ccc(F)cc4F)c(F)c3)c2cc1OC [Ki8751]
- antiviral activity (prevention of viral CPE) in primary screen (SARS-CoV-2 [1]): antiviral activity

Compound: COc1cc2c(Nc3ccc(NC(=O)c4ccccc4)cc3)ncnc2cc1OCCCN1CCOCC1 [ZM 447439]
- antiviral activity (prevention of viral CPE) in primary screen (SARS-CoV-2 [1]): antiviral activity

Compound: CCS(=O)(=O)Nc1ccc2c(c1)/C(=C(/Nc1ccc(CN3CCCCC3)cc1)c1ccccc1)C(=O)N2 [Hesperadin]
- antiviral activity (prevention of viral CPE) in primary screen (SARS-CoV-2 [1]): antiviral activity

Compound: NC(=O)c1ccc(N(C(N)=O)c2c(F)cccc2F)nc1-c1ccc(F)cc1F [VX-702]
- antiviral activity (prevention of viral CPE) in primary screen (SARS-CoV-2 [1]): antiviral activity

Compound: Cn1cc(-c2ccc3nnc(C(F)(F)c4ccc5ncccc5c4)n3n2)cn1 [JNJ-38877605]
- antiviral activity (prevention of viral CPE) in primary screen (SARS-CoV-2 [1]): antiviral activity

Compound: CS(=O)(=O)N1CCN(Cc2cc3nc(-c4cccc5[nH]ncc45)nc(N4CCOCC4)c3s2)CC1 [GDC-0941, Pictilisib]
- antiviral activity (prevention of viral CPE) in primary screen (SARS-CoV-2 [1]): antiviral activity

Compound: CNC(=O)c1cccc(-c2ccc3c(N4CCOC[C@@H]4C)nc(N4CCOC[C@@H]4C)nc3n2)c1 [AZD2014, Vistusertib]
- antiviral activity (prevention of viral CPE) in primary screen (SARS-CoV-2 [1]): antiviral activity
- IC50 (SARS-CoV-2 [2]; [9]): 34 nM
- IC50 (SARS-CoV-2 [2]; Vero E6 cells): < 25 nM
- anti-viral activity in secondary screen (SARS-CoV-2 [8]): not exhibited potent anti-viral activity

Compound: COc1ccc(-c2ccc3c(N4CCOC[C@@H]4C)nc(N4CCOC[C@@H]4C)nc3n2)cc1CO [AZD8055]
- antiviral activity (prevention of viral CPE) in primary screen (SARS-CoV-2 [1]): antiviral activity

Compound: Nc1ccc(C(=O)Nc2cccc(-c3nc(N4CCOCC4)c4oc5ncccc5c4n3)c2)cn1 [YM201636]
- antiviral activity (prevention of viral CPE) in primary screen (SARS-CoV-2 [1]): antiviral activity

Compound: CC(C)(O)CNc1ncc(-c2ccnc(Nc3ccnc(Cl)c3)n2)c(CC2CC2)n1 [VPS34-IN1]
- antiviral activity (prevention of viral CPE) in primary screen (SARS-CoV-2 [1]): antiviral activity
- IC50 (SARS-CoV-2 [2]; [9]): 50 to 125 nM

Compound: Cc1cn(-c2cc(NC(=O)c3ccc(C)c(Nc4nccc(-c5cccnc5)n4)c3)cc(C(F)(F)F)c2)cn1 [Nilotinib]
- antiviral activity (prevention of viral CPE) in primary screen (SARS-CoV-2 [1]): antiviral activity
- IC50 (SARS-CoV-2 [2]; [9]): 50 to 125 nM
- anti-viral activity in secondary screen (SARS-CoV-2 [8]): not exhibited potent anti-viral activity

Compound: CNC(=O)Nc1ccc(-c2nc(N3CC4CCC(C3)O4)c3cnn(C4CCC5(CC4)OCCO5)c3n2)cc1 [WYE-125132]
- antiviral activity (prevention of viral CPE) in primary screen (SARS-CoV-2 [1]): antiviral activity

Compound: FC(F)c1nc2ccccc2n1-c1nc(N2CCOCC2)nc(N2CCOCC2)n1 [ZSTK474]
- antiviral activity (prevention of viral CPE) in primary screen (SARS-CoV-2 [1]): antiviral activity

Compound: CN1CCN(Cc2ccc(-c3cnc4[nH]cc(-c5ccc6[nH]ccc6c5)c4c3)cc2)CC1 [URMC-099]
- antiviral activity (prevention of viral CPE) in primary screen (SARS-CoV-2 [1]): antiviral activity
- IC50 (SARS-CoV-2 [2]; [9]): 50 to 125 nM

Compound: O=C1c2ccc(Nc3ccc(F)cc3F)cc2CCc2ccc(OC[C@H](O)CO)cc21 [Skepinone-L]
- antiviral activity (prevention of viral CPE) in primary screen (SARS-CoV-2 [1]): antiviral activity

Compound: O=c1ncn2nc(Sc3ccc(F)cc3F)ccc2c1-c1c(Cl)cccc1Cl [VX-745]
- antiviral activity (prevention of viral CPE) in primary screen (SARS-CoV-2 [1]): antiviral activity

Compound: Cn1cc(C2=C(c3cn(C4CCN(Cc5ccccn5)CC4)c4ccccc34)C(=O)NC2=O)c2ccccc21 [Enzastaurin]
- antiviral activity (prevention of viral CPE) in primary screen (SARS-CoV-2 [1]): antiviral activity

Compound: CSc1cccc(Nc2ncc3cc(-c4c(Cl)cccc4Cl)c(=O)n(C)c3n2)c1 [PD173955]
- antiviral activity (prevention of viral CPE) in primary screen (SARS-CoV-2 [1]): antiviral activity
